Results reported in US20040127435A1, “Uses for inhibitors of inosine monophosphate dehydrogenase” (REGENTS OF THE UNIVERSITY OF CALIFORNIA, priority 2002, published 2004).
pIC50: −log10 of the molar value. Entries after “also recorded” stand apart in the source; their conditions may differ. Where two headings read alike, the source gives them in different places. Each block holds one compound with its values, some of them ahead of it.

What was measured:
[1] = tested on: MTAP-deleted lung cancer cells (A549); experiment: Cell proliferation of MTAP-deleted A549 cells by MTT assay, mizoribine base pre-treatment then L-alanosine; assay type: cell-based; settings: Homo sapiens
Protocol: MTAP-deleted lung cancer cells (A549) were pre-treated for 24 hours with control vehicle (square), or the indicated concentrations of mizoribine-base (10 μM, 25 μM and 50 μM). After 24 hours in culture L-alanosine was added at decreasing concentrations (½ dilutions) starting at 40 μM. Cell were then incubated for an additional 48 hours. Cell proliferation was tested by the MTT assay. As indicated by FIG. 4, the IC50 and IC90 (amount of drug needed to block proliferation by 50% or 90%) of L-alanosine declines in the presence of mizoribine base.

CLL cells [2] = experiment: CLL cell viability by MTT dye assay; assay type: cell-based; settings: Homo sapiens, 24 h, read-out: cell viability
Protocol: Indanocine is commercially available from Calbiochem (Cat. No. 402080). Leoni L. M., et al., J Natl Cancer Inst. 92:217-224 (2000). Hua X. H., et al., Cancer Res. 61:7248-7254 (2001). CLL cells were isolated and cultured as described above. CLL cells at a density of 1×10^6 ml were incubated for 24 hours in RPMI 1640 medium supplemented with 10% fetal bovine serum in the presence of 1 μM indanocine (abbreviated 178) and either 0, 1, or 10 μM mizoribine. Cell viability was assessed by the MTT [3-(4,5-dimethylthiazol-2-yl)-2,5-diphenyltetrazolium bromide) dye assay.

[3] = tested on: MTAP-deleted chronic myelogenous leukemia cells (K562); experiment: Cell proliferation of MTAP-deleted K562 cells by MTT dye assay; assay type: cell-based; settings: read-out: IC50 (amount of drug needed to block proliferation by 50%)
Protocol: MTAP-deleted chronic myelogenous leukemia cells (K562) were pre-treated for the indicated times (24, 48, 72 hours) with concentrations of mizoribine (squares) or mizoribine base (triangles) from 200 μM to 0.5 μM. At the end of the incubation time cell proliferation was tested by the MTT dye assay. As indicated by FIG. 3, the IC50 (amount of drug needed to block proliferation by 50%) of mizoribine or its base progressively declines as the time of exposure to drug increases. After 48 hours of incubation with mizoribine or mizoribine base, the IC50 for the drug is approximately 100 micromolar. After 72 hours of incubation with mizoribine or mizoribine base, the IC50 for the drug is approximately 10 micromolar.

[4] = in vivo; cited from earlier work
activated PBL = experiment: α-tubulin polymerization assay in PBL activated with anti-CD3 and anti-CD28 antibodies; assay type: cell-based, human; settings: PBL activated 24 hrs with anti-CD3 and anti-CD28, paclitaxel for one hour
Protocol: (§1) Peripheral blood from CLL patients or normal donors was layered on top of Ficoll-Paque Plus (Pharmacia, NJ) and centrifuged at 1200×g for twenty minutes. The enriched peripheral blood mononuclear cells (PBL) were washed several times with Ca++, Mg++-free HBSS.
(§2) All primary cells were cultured in RPMI 1640 medium with 20% fetal bovine serum (regular medium) at a density of 2-5×10^6 cell/ml. In some cases, the PBL were stimulated for 24 hours with 1 μg/ml anti-CD3 and anti-CD28 antibodies (Alexis, San Diego, Calif.) prior to immunoblot analysis.
(§3) α-tubulin Polymerization Assay. For each data point, 2×10^6 of cells were incubated in 2 ml of regular medium containing drugs for various periods of time. The cells were then washed twice at room temperature, and resuspended in 50 μl of α-tubulin extraction buffer (1 mM MgC2, 2 m MEGTA, 0.5% NP-40, 20 mM Tris-HCl, pH=6.8) supplemented with 2 mM phenylmethysulfonyl fluoride, and a protease inhibitor cocktail (Sigma). After a brief but vigorous vortex, the lysates were incubated at room temperature for 5 minutes, and then centrifuged at 16,000×g for 5 minutes to separate the soluble from polymerized α-tubulin. The supernatant and pellet fractions were resolved on 10-20% pre-cast tris-glycine gels (Novex, San Diego, Calif.) and then subjected to immune blotting with a specific anti-α-tubulin antibody. […]

CLL cells [5] = experiment: α-tubulin polymerization assay in CLL cells; assay type: cell-based, human; settings: paclitaxel
Protocol: Lymphocyte Cultures. The Institutional Review Board of the University of California, San Diego approved this study, and all patients gave informed written consent to participation. Subjects had CLL according to National Cancer Institute (NCI) criteria of any Rai stage. None of the patients were in active chemotherapeutic treatments. Flow cytometric analysis determined that all specimens contained more than 90% CD5+CD19+B cells.
as §1, §2
α-tubulin Polymerization Assay. For each data point, 2×10^6 of cells were incubated in 2 ml of regular medium containing drugs for various periods of time. The cells were then washed twice at room temperature, and resuspended in 50 μl of α-tubulin extraction buffer (1 mM MgC2, 2 m MEGTA, 0.5% NP-40, 20 mM Tris-HCl, pH=6.8) supplemented with 2 mM phenylmethysulfonyl fluoride, and a protease inhibitor cocktail (Sigma). […]

[6] = tested on: normal PBL (peripheral blood mononuclear cells); experiment: α-tubulin polymerization assay in normal PBL (soluble vs particulate fraction, immunoblot); assay type: cell-based, human; settings: normal resting PBL, paclitaxel for one hour
Protocol: as §1, §2, §3

[7] = A549, 48 h, A549, without mizoribine base, 48 hours L-alanosine
[8] = A549, A549, 24 hours pre-treatment with 10 micromolar mizoribine base
[9] = A549, A549, 24 hours pre-treatment with 25 micromolar mizoribine base
[10] = A549, A549, 24 hours pre-treatment with 50 micromolar mizoribine base

SMILES: N[C@@H](CN(O)N=O)C(=O)O [L-alanosine]
pIC50 [1, 7]: 6.30
IC90 [1, 7]: 20 µM
pIC50 [1, 8]: 6.30
IC90 [1, 8]: 9 µM
pIC50 [1, 9]: 6.60
IC90 [1, 9]: 6 µM
pIC50 [1, 10]: 6.82
IC90 [1, 10]: 4 µM

SMILES: COc1cc2c(c(N)c1OC)C(=O)/C(=C\c1cc(C)c(O)c(C)c1)C2 [indanocine]
viability at 1 µM (CLL cells [2]): 24%

pIC50 ([3]; K562, 48 hours of incubation): ~4.00
pIC50 ([3]; K562, 72 hours of incubation): ~5.00
SMILES: NC(=O)c1[nH]cnc1O [mizoribine base, mizoribine aglycone]

pIC50 ([3]; Homo sapiens, K562, 48 hours of incubation): ~4.00
pIC50 ([3]; Homo sapiens, K562, 72 hours of incubation): ~5.00
SMILES: NC(=O)c1ncn([C@@H]2O[C@H](CO)[C@@H](O)[C@H]2O)c1O [mizoribine]
plasma half life [4]: a few hours
viability at 1 µM (CLL cells [2]): 55%
viability at 10 µM (CLL cells [2]): 45%

SMILES: CC(=O)O[C@H]1C(=O)[C@@]2(C)[C@H]([C@H](OC(=O)c3ccccc3)[C@]3(O)C[C@H](OC(=O)[C@H](O)[C@@H](NC(=O)c4ccccc4)c4ccccc4)C(C)=C1C3(C)C)[C@]1(OC(C)=O)CO[C@@H]1C[C@@H]2O [paclitaxel]
α-tubulin in the particulate fraction after treatment (activated PBL): most of the α-tubulin shifted to the particulate fraction; also recorded: a shift of α-tubulin to the particulate-bound fraction
α-tubulin in the particulate fraction after treatment (CLL cells [5]): nearly complete relocalization of α-tubulin to the particulate fraction
α-tubulin in the particulate fraction after treatment [6]: only a minimal increase of α-tubulin in the particulate fraction; also recorded: did not change this pattern
